{
  "source": "patent US20250333370A1",
  "about": "“METHOD FOR EXTRACTING 3,5-O-DICAFFEOYLQUINIC ACID FROM HUANGSHAN GONGJU AND ITS APPLICATION IN DRUGS FOR PROTECTING AGAINST ALCOHOLIC LIVER DAMAGE” (Hefei University of Technology, priority 2024, published 2025)",
  "key": {"α-glucosidase": {"tested_on": "α-glucosidase", "conditions": "studies have shown; cited from earlier work"}, "AML-12 cells": {"tested_on": "AML-12 cells", "assay": "MTT cell survival, toxic effect of 3,5-O-dicaffeoylquinic acid on cells", "assay_type": "cell-based, mouse", "conditions": "for cell survival rate: AML-12 cells, 24 hours, MTT", "protocol": "AML-12 cells, mouse normal liver cells; 3-(4,5-dimethylthiazol-2-yl)-2,5-diphenyl-2H-tetrazolium-3-bromide (MTT), dimethyl sulfoxide (DMSO), reactive oxygen species (ROS) kit, superoxide dismutase (SOD) kit, malondialdehyde (MDA) kit, glutathione (GSH) kit; high-speed centrifuge, microplate reader, etc.\nLogarithmically growing AML-12 cells are seeded into 96-well plates at a density of 0.8×10^5 cells/mL, and 100 μL of cell suspension is added to each well and incubated for 24 hours. In an alcohol treatment group, alcohol (0-1600 mM, DMEM dilution) is added to the incubator for 24 hours. In a 3,5-O-dicaffeoylquinic acid treatment group, 100 μL of 3,5-O-dicaffeoylquinic acid (100-1600 μg/mL, DMEM dilution) is added to the incubator for 24 hours. 120 μL of MTT (1 mg/mL) is added to each well and incubated for 4 h. The reaction solution is discarded; 150 μL DMSO is added, and OD value is measured at a wavelength of 490 nm after shaking for 10 minutes in the dark."}, "[1]": {"conditions": "studies have shown; cited from earlier work"}, "[2]": {"tested_on": "alcohol-induced AML-12 cells", "assay": "Apoptosis and necrosis after alcohol damage (Hoechst, fluorescence microscope and flow cytometer)", "assay_type": "cell-based, mouse", "conditions": "260 mM alcohol", "protocol": "(§1) AML-12 cells are treated with drugs (100, 200, 400 μg/mL) for 24 h, and then treated with 260 mM alcohol for 24 h. After trypsin digestion and PBS washing, probe from an apoptosis detection kit is added. First, incubation is conducted with 5 μL Hoechst (diluted in PBS) at 0° C. for 20 min. The supernatant is discarded after centrifugation, and the remaining is washed three times and resuspended in PBS. 10 μL of the resuspension is observed under a fluorescence microscope, and is further detected under a flow cytometer."}, "[3]": {"tested_on": "alcohol-induced AML-12 cells", "assay": "Determination of MDA, SOD, CAT and GSH content (kits)", "assay_type": "cell-based, mouse", "conditions": "260 mM alcohol", "text": "Excessive ROS in cells can cause oxidative reactions in proteins and unsaturated fatty acids. MDA is the final product of the oxidation of polyunsaturated fatty acids and is a marker of lipid peroxidation in cells, which is widely used in studies on oxidative stress. SOD, CAT, and GSH are important antioxidant enzymes in the body and play an important role in the body's systematic resistance to oxidative stress. […] After trypsin digestion and PBS washing, the MDA, SOD, CAT, and GSH content in the cells are detected according to the guidance of corresponding kits."}, "[4]": {"tested_on": "alcohol-induced AML-12 cells", "assay": "ROS content determination (DCFH-DA, fluorescence microscope and flow cytometer)", "assay_type": "cell-based, mouse", "conditions": "260 mM alcohol", "protocol": "as §1, with “washing, the” for “washing,”, “the ROS” for “an apoptosis detection”, “1 mL of DCFH-DA” for “5 μL Hoechst”, “serum-free DMEM)” for “PBS)”, “37°” for “0°”"}, "[5]": {"tested_on": "focal cerebral ischemia-reperfusion injury", "conditions": "rats; studies have shown; cited from earlier work"}, "[6]": {"tested_on": "alcohol-damaged AML-12 cells", "assay": "MTT cell survival, ameliorative effect on cell alcohol damage (260 mM alcohol)", "assay_type": "cell-based, mouse", "conditions": "pretreatment 24 hours, then 260 mM alcohol 24 hours", "protocol": "Log-growing AML-12 cells are collected and digested, and then seeded into a 96-well plate at a density of 0.8×10^5 cells/mL per well. After 24 hours of cell proliferation, the control (and model) group is incubated with 100 μL of medium for 48 hours; the 3,5-O-dicaffeoylquinic acid treatment group is incubated with different concentrations of 3,5-O-dicaffeoylquinic acid for 24 hours, and the original medium is discarded; the cells (in model and drug treated group) are incubated in 100 μL of medium containing 260 mM alcohol for 24 hours. The absorbance measurement method is the same as the item 2 above.\nCell survival rate is calculated using the following formula: […]"}, "[7]": {"conditions": "400 μg/mL pretreatment, fluorescence microscope"}},
  "data": [
    {"smiles": "O=C(C=Cc1ccc(O)c(O)c1)OC1CC(O)(C(=O)O)CC(OC(=O)C=Cc2ccc(O)c(O)c2)C1O", "note": "(single isomer, unassigned) [3,5-O-dicaffeoylquinic acid]", "values": [
      {"measurement": "α-glucosidase inhibition", "setting": "α-glucosidase", "result": "inhibits"},
      {"measurement": "cell survival rate", "setting": "AML-12 cells; 0-800 μg/mL", "result": "increases significantly"},
      {"measurement": "cell survival rate", "setting": "AML-12 cells; 1600 μg/mL, P<0.05", "result": "decreases significantly"},
      {"measurement": "toxicity to AML-12 cells", "setting": "AML-12 cells; concentration range of 0-800 μg/mL", "result": "non-toxic"},
      {"measurement": "antioxidant effects", "setting": "[1]", "result": "certain antioxidant effects"},
      {"measurement": "fluorescence intensity of apoptosis compared with the alcohol-treated group", "setting": "[2]; [7]", "result": "significantly reduces"},
      {"measurement": "cell survival rate (apoptosis/necrosis flow cytometry)", "setting": "[2]; pretreatment with different concentrations, with the increase in drug concentration", "result": "gradually increases"},
      {"measurement": "MDA content in cells, concentration of best effect", "setting": "[3]; 200 μg/mL pretreatment", "result": "most significant effect"},
      {"measurement": "GSH content", "setting": "[3]; 400 μg/mL pretreatment, increases from 53.39±2.16 mg/g protein", "result": "82.14±1.67", "unit": "mg/g protein"},
      {"measurement": "activity of CAT in cells", "setting": "[3]; 100-600 μg/mL pretreatment", "result": "significantly restore"},
      {"measurement": "activity of SOD in cells", "setting": "[3]; 100-600 μg/mL pretreatment", "result": "significantly restore"},
      {"measurement": "MDA content in cells", "setting": "[3]; pretreatment at different concentrations", "result": "significantly reduces"},
      {"measurement": "ROS fluorescence intensity of the cells compared to the alcohol-treated group (model group)", "setting": "[4]; [7]", "result": "significantly reduces"},
      {"measurement": "fluorescence intensity of ROS versus model group, dependence on drug concentration", "setting": "[4]; 100, 200, 400 μg/mL pretreatment, fluorescence microscope", "result": "gradually weakens with the increase of drug concentration"},
      {"measurement": "ROS peak fluorescence intensity, flow cytometry", "setting": "[4]; pretreatment with different concentrations, as the drug concentration increases", "result": "shifts significantly to the right"},
      {"measurement": "focal cerebral ischemia-reperfusion injury", "setting": "[5]", "result": "can mitigate"},
      {"measurement": "increase of cell survival rate compared with the model group", "setting": "[6]; 400 μg/mL, highest cell survival rate", "result": 19.90, "unit": "%"},
      {"measurement": "survival rate of alcohol-damaged AML-12 cells compared with model group", "setting": "[6]; 100-400 g/mL (so in the source)", "result": "significantly increase"}
    ]}
  ]
}
